Measurements published in PubChem BioAssay AID248 (DTP/NCI, 2004).
Values joined by “and” are separate entries in the source; they are usually repeats but may differ in a detail not shown here. Equal values may be shown once. Toxic doses and inconclusive results are not listed.

Test system: L1210 leukemia ip in BDF1 mice, survival T/C
Assay: NCI In Vivo Anticancer Drug Screen. Data for tumor model L1210 Leukemia (intraperitoneal) in B6D2F1 (BDF1) mice
Conditions: endpoint: mean survival time, higher = longer survival
Procedure, shortened: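 Antitumor effect is assessed in tumor-bearing animals. Survival in the compound arm is compared with a vehicle-dosed control arm and expressed as their quotient.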

[1] = dose: 100.0 mg/kg/injection, schedule: Q01DX001 (ip), vehicle: Klucel (hydroxypropylcellulose) (HPC)
[2] = dose: 100.0 mg/kg/injection, schedule: Q04DX003 (ip), vehicle: Klucel (hydroxypropylcellulose) (HPC)
[3] = dose: 100.0 mg/kg/injection, schedule: Q04DX002 (ip), vehicle: Klucel (hydroxypropylcellulose) (HPC)
[4] = dose: 200.0 mg/kg/injection, schedule: Q04DX002 (ip), vehicle: Klucel (hydroxypropylcellulose) (HPC)
[5] = dose: 100.0 mg/kg/injection, schedule: Q01DX001 (ip), vehicle: carboxymethylcellulose (CMC)
[6] = dose: 200.0 mg/kg/injection, schedule: Q01DX001 (ip), vehicle: carboxymethylcellulose (CMC)
[7] = dose: 400.0 mg/kg/injection, schedule: Q01DX001 (ip), vehicle: carboxymethylcellulose (CMC)
[8] = dose: 200.0 mg/kg/injection, schedule: Q04DX003 (ip), vehicle: Klucel (hydroxypropylcellulose) (HPC)
[9] = dose: 400.0 mg/kg/injection, schedule: Q04DX003 (ip), vehicle: Klucel (hydroxypropylcellulose) (HPC)

## Nc1ccc(N)c(N)n1
dose: 6.25 mg/kg/injection, schedule: Q04DX003 (ip), vehicle: saline
  T/C: 95 % of control
dose: 12.5 mg/kg/injection, schedule: Q04DX003 (ip), vehicle: saline
  T/C: 97 % of control
dose: 15.0 mg/kg/injection, schedule: Q01DX001 (ip), vehicle: saline
  T/C: 107 % of control
dose: 25.0 mg/kg/injection, schedule: Q04DX003 (ip), vehicle: saline
  T/C: 97 % of control
dose: 30.0 mg/kg/injection, schedule: Q01DX001 (ip), vehicle: saline
  T/C: 107 % of control
dose: 60.0 mg/kg/injection, schedule: Q01DX001 (ip), vehicle: saline
  T/C: 97 % of control

## C[N+](C)(C)C1=CC=CC=C1.Br[Br-]Br
dose: 12.5 mg/kg/injection, schedule: Q01DX009 (ip), vehicle: other
  T/C: 98 % of control
dose: 12.5 mg/kg/injection, schedule: Q04DX003 (ip), vehicle: Klucel (hydroxypropylcellulose) (HPC)
  T/C: 102 % of control
dose: 25.0 mg/kg/injection, schedule: Q01DX009 (ip), vehicle: other
  T/C: 98 % of control
dose: 25.0 mg/kg/injection, schedule: Q01DX009 (ip), vehicle: saline
  T/C: 104 % of control
dose: 25.0 mg/kg/injection, schedule: Q04DX003 (ip), vehicle: Klucel (hydroxypropylcellulose) (HPC)
  T/C: 102 % of control
dose: 50.0 mg/kg/injection, schedule: Q01DX009 (ip), vehicle: other
  T/C: 95 % of control
dose: 50.0 mg/kg/injection, schedule: Q01DX009 (ip), vehicle: saline
  T/C: 105 % of control
dose: 50.0 mg/kg/injection, schedule: Q04DX003 (ip), vehicle: Klucel (hydroxypropylcellulose) (HPC)
  T/C: 101 % of control
[1]
  T/C: 101 % of control
[2]
  T/C: 104 % of control

## ClCCN(CCCl)CCCNCCCNc1c2ccccc2nc2c1ccc1ccccc12
dose: 0.08 mg/kg/injection, schedule: Q01DX Z (ip), vehicle: saline
  T/C: 102 % of control
dose: 0.16 mg/kg/injection, schedule: Q01DX Z (ip), vehicle: saline
  T/C: 106 % of control
dose: 0.31 mg/kg/injection, schedule: Q01DX Z (ip), vehicle: saline
  T/C: 110 % of control
dose: 0.62 mg/kg/injection, schedule: Q01DX Z (ip), vehicle: saline
  T/C: 112 % of control
dose: 1.25 mg/kg/injection, schedule: Q01DX Z (ip), vehicle: saline
  T/C: 102 % of control
dose: 2.5 mg/kg/injection, schedule: Q01DX Z (ip), vehicle: saline
  T/C: 97 % of control

## Cc1cnc(C(N)=O)c(=O)[nH]1
dose: 100.0 mg/kg/injection, schedule: Q01DX009 (ip), vehicle: saline
  T/C: 96 % of control
dose: 100.0 mg/kg/injection, schedule: Q04DX003 (ip), vehicle: saline
  T/C: 100 % of control
dose: 200.0 mg/kg/injection, schedule: Q01DX009 (ip), vehicle: saline
  T/C: 96 % of control
dose: 200.0 mg/kg/injection, schedule: Q04DX003 (ip), vehicle: saline
  T/C: 100 % of control
dose: 400.0 mg/kg/injection, schedule: Q01DX009 (ip), vehicle: saline
  T/C: 98 % of control
dose: 400.0 mg/kg/injection, schedule: Q04DX003 (ip), vehicle: saline
  T/C: 97 % of control

## Cc1cc(=O)cc(Nc2ccccc2)o1
[3]
  T/C: 93 % of control
[4]
  T/C: 90 % of control
dose: 400.0 mg/kg/injection, schedule: Q04DX002 (ip), vehicle: Klucel (hydroxypropylcellulose) (HPC)
  T/C: 101 % of control

## Nc1c(Cl)c(Cl)c2c(c1Cl)C(O)c1cc(Cl)ccc1-2 (stereo not given)
[5]
  T/C: 89 % of control
[6]
  T/C: 95 % of control
[7]
  T/C: 93 % of control

## CCCCN(C(C)=O)c1ccccc1
[1]
  T/C: 97 % of control
dose: 200.0 mg/kg/injection, schedule: Q01DX001 (ip), vehicle: Klucel (hydroxypropylcellulose) (HPC)
  T/C: 91 % of control
dose: 400.0 mg/kg/injection, schedule: Q01DX001 (ip), vehicle: Klucel (hydroxypropylcellulose) (HPC)
  T/C: 94 % of control

## CCCN1CCC(C(=O)CC)(c2cccc(O)c2)CC1
[3]
  T/C: 106 % of control
[4]
  T/C: 106 % of control

## CCOC(=O)c1[nH]cnc1/N=N/N(C)CCO
dose: 50.0 mg/kg/injection, schedule: Q01DX009 (ip), vehicle: Klucel (hydroxypropylcellulose) (HPC)
  T/C: 122 % of control
dose: 90.0 mg/kg/injection, schedule: Q01DX009 (ip), vehicle: Klucel (hydroxypropylcellulose) (HPC)
  T/C: 116 % of control
[5]
  T/C: 115 % of control
dose: 100.0 mg/kg/injection, schedule: Q01DX009 (ip), vehicle: Klucel (hydroxypropylcellulose) (HPC)
  T/C: 117 % of control
[2]
  T/C: 109 % of control and 115 % of control
dose: 175.0 mg/kg/injection, schedule: Q01DX009 (ip), vehicle: saline
  T/C: 152 % of control
[6]
  T/C: 102 % of control
[8]
  T/C: 108 % of control and 121 % of control
[7]
  T/C: 107 % of control
dose: 400.0 mg/kg/injection, schedule: Q01DX009 (ip), vehicle: Klucel (hydroxypropylcellulose) (HPC)
  T/C: 150 % of control and 154 % of control
[9]
  T/C: 124 % of control
dose: 600.0 mg/kg/injection, schedule: Q01DX009 (ip), vehicle: saline
  T/C: 154 % of control

## O=S1(=O)CCNNCC1
dose: 37.5 mg/kg/injection, schedule: Q01DX009 (ip), vehicle: saline
  T/C: 100 % of control
dose: 75.0 mg/kg/injection, schedule: Q01DX009 (ip), vehicle: saline
  T/C: 109 % of control
dose: 150.0 mg/kg/injection, schedule: Q01DX009 (ip), vehicle: saline
  T/C: 105 % of control
dose: 300.0 mg/kg/injection, schedule: Q01DX009 (ip), vehicle: saline
  T/C: 103 % of control

## CC1(C)N=C(N)N=C(N)N1c1ccc(Cl)c(Cl)c1
dose: 1.0 mg/kg/injection, schedule: Q01DX009 (ip), vehicle: saline
  T/C: 111 % of control
dose: 1.25 mg/kg/injection, schedule: Q01DX009 (ip), vehicle: saline
  T/C: 109 % of control
dose: 2.5 mg/kg/injection, schedule: Q01DX009 (ip), vehicle: saline
  T/C: 109 % of control and 117 % of control
dose: 5.0 mg/kg/injection, schedule: Q01DX001 (ip), vehicle: saline
  T/C: 105 % of control
dose: 5.0 mg/kg/injection, schedule: Q01DX009 (ip), vehicle: saline
  T/C: 119 % of control
dose: 10.0 mg/kg/injection, schedule: Q01DX001 (ip), vehicle: saline
  T/C: 102 % of control and 106 % of control
dose: 10.0 mg/kg/injection, schedule: Q01DX009 (ip), vehicle: saline
  T/C: 117 % of control and 118 % of control
dose: 20.0 mg/kg/injection, schedule: Q01DX001 (ip), vehicle: saline
  T/C: 105 % of control and 106 % of control
dose: 20.0 mg/kg/injection, schedule: Q01DX009 (ip), vehicle: saline
  T/C: 92 % of control
dose: 36.0 mg/kg/injection, schedule: Q01DX009 (ip), vehicle: saline
  T/C: 88 % of control
dose: 40.0 mg/kg/injection, schedule: Q01DX001 (ip), vehicle: saline
  T/C: 107 % of control and 92 % of control

## c1cc[c]([Sn]([S]c2ncnc3c2nc[n]3[Sn]([c]2ccccc2)([c]2ccccc2)[c]2ccccc2)([c]2ccccc2)[c]2ccccc2)cc1.c1cc[c]([Sn]([S]c2ncnc3nc[nH]c23)([c]2ccccc2)[c]2ccccc2)cc1
dose: 5.0 mg/kg/injection, schedule: Q01DX001 (ip), vehicle: other
  T/C: 122 % of control
dose: 10.0 mg/kg/injection, schedule: Q01DX001 (ip), vehicle: other
  T/C: 100 % of control
dose: 20.0 mg/kg/injection, schedule: Q01DX001 (ip), vehicle: other
  T/C: 100 % of control

## O=S(=O)(O)SCCCNCCCCCCCCNCCCSS(=O)(=O)O
dose: 100.0 mg/kg/injection, schedule: Q04DX003 (ip), vehicle: saline with Tween-80
  T/C: 101 % of control
dose: 200.0 mg/kg/injection, schedule: Q04DX003 (ip), vehicle: saline with Tween-80
  T/C: 92 % of control
dose: 400.0 mg/kg/injection, schedule: Q04DX003 (ip), vehicle: saline with Tween-80
  T/C: 88 % of control

## O=C(c1ccccc1)C(c1ccccc1)C(C[N+](=O)[O-])c1ccccc1 (stereo not given)
dose: 100.0 mg/kg/injection, schedule: Q01DX009 (ip), vehicle: saline with Tween-80
  T/C: 88 % of control
dose: 200.0 mg/kg/injection, schedule: Q01DX009 (ip), vehicle: saline with Tween-80
  T/C: 90 % of control
dose: 400.0 mg/kg/injection, schedule: Q01DX009 (ip), vehicle: saline with Tween-80
  T/C: 96 % of control

## COc1ccc(C(=O)OCc2ccccc2CN(C)C)cc1
dose: 100.0 mg/kg/injection, schedule: Q04DX002 (ip), vehicle: saline
  T/C: 105 % of control
dose: 200.0 mg/kg/injection, schedule: Q04DX002 (ip), vehicle: saline
  T/C: 105 % of control

## O=C(Nc1cc([N+](=O)[O-])ccc1O)Nc1cc([N+](=O)[O-])ccc1F
[2]
  T/C: 100 % of control
[8]
  T/C: 94 % of control
[9]
  T/C: 98 % of control
